Data taken from US11104684B2, “Dimers of covalent NFKB inhibitors” (BOARD OF REGENTS OF THE UNIVERSITY OF NEBRASKA, priority 2016, dated 2021).

What was measured:
A2780 cells = test: Cell viability assay (PrestoBlue, 72 hour drug incubation); assay type: cell-based; settings: 72 hour incubation, growth inhibition; for IC50: Homo sapiens
Description: (§1) MiaPaCa2, A2780, and OVCAR5 cells were plated at 4000 cells/well in a 96-well plate and allowed to adhere overnight. The following day, cells were treated with compounds using ˜10-fold dilutions starting at 1000 nM. PrestoBlue reagent (Invitrogen #A13262) was added to cells after 72 hour drug incubation to assess the growth inhibition. Fluorescence excitation/emission was measured at 560/590nM using a SpectraMax M5^e instrument. Growth inhibition was calculated using 100-[100*(Samples-T0)/(T100-T0)]. T0 is the vehicle control reading immediately following drug addition and T100 is the control reading at the end of 72 hour incubation.

OVCAR5 cells = test: as above; assay type: cell-based; settings: growth inhibition; for IC50: Homo sapiens, OVCAR-5, 72 hour incubation
Description: as §1

[1] = tested on: caspase 3/7 activity in HGSC cell lines; test: Caspase 3/7 luciferase assay (apoptosis); assay type: cell-based; settings: 1 μM, 6 hours, five HGSC cell lines
Description: To determine the effect of 36-252 on apoptosis, a small panel of HGSC cell lines was treated with 1 μM 36-252 for 6 hours (1 μM of flavopiridol was used as a positive control). Caspases are a class of cysteine proteinases that are activated during apoptosis and measuring caspase activity is routinely used to detect activation of apoptotic signaling. Activation of caspase 3/7 was assessed using a luciferase assay.
2500 cells were plated in a 384-well black walled clear bottom plate at 2,500 cells per well in […] per well in the presence of 4.5 μM doxycycline. Cells were incubated overnight to adhere to plate. After cells were treated and plate was allowed to incubate, Caspase-glo (Promega G8093) reagent was added and the plate was allowed to incubate for 30 min. The plate was then read for luminescence at 1000 ms. Presto-blue was added at a volume of 1/10 total volume per well (2.5μL) and cells were allowed to incubate for 10 min. The plate was then read for fluorescence at 560ex/590em. Values were calculated by: ([Luminescence*100]/Fluorescence)/DMSOavg.

[2] = tested on: proteins in the IKK complex (A2780 cells); test: Western blot analysis of crosslinking; assay type: cell-based; settings: for crosslinking (high molecular weight bands): A2780 cells, 10 pM, 2 hours
Description: Crosslinking of proteins in the IKK complex was studied as follows. A2780 cells were treated with 10 pM of analog 19 or 36-252 and incubated for 2 hours.
Cells were washed with cold 1×PBS 3 times and scraped before being lysed by a buffer containing the following: 50 mM Tris, 100 mM NaCl, 1% NP-40, […], 20% SDS, 20×PPl (Na3VO4, NAF, β-glycerophosphate) and 1 mmol/L PMSF. After collection, samples were incubated on ice for 30 minutes and vortexed in 15 minute intervals. Samples were then centrifuged at 14,000rpm for 10 minutes at 4° C. and supernatant was collected. Protein quantification was determined by BCA Protein Assay (Pierce #23225). 20-40ug protein samples were run on 4-15% gradient gels (BioRad) in 1×TRIS-Glycine-SDS Buffer (Research Products International Corporation #T32080) at 120V for -60 minutes and separated by SDS-page electrophoresis. Samples were transferred to a PVDF membrane by semi-dry transfer method (ThermoScientific #35035) run at 18V for ˜35 minutes. Membranes were blocked in 5% milk diluted in 1×-Tris Buffered Saline with 0.1% Tween (1×TBST) for 1 hour at room temperature rocking at low speed. Primary antibodies were diluted in 5% milk in 1×TBST and were rocked gently overnight in 4° C. Membranes were incubated with the appropriate HRP-conjugated secondary antibody for 1 hour at room temperature while gently rocking. 3 washes (10 minute) with 1×TBST occurred before and after secondary antibody. ECL Prime (GE Healthcare #RPB2236) was used to detect protein expression

[3] = tested on: non-transformed HGSC precursor fallopian tube epithelial (FTE) cells FT282; test: Growth inhibition in non-transformed fallopian tube epithelial cells; assay type: cell-based; settings: for IC50: Epithelial cell, non-transformed FT282 cells
Description: Monomeric compound 19, 36-252, and 36-242 were evaluated in non-transformed HGSC precursor fallopian tube epithelial (FTE) cells FT282.

OVCAR5 SP cells = test: Side population analysis (Hoechst 33342, flow cytometry); settings: 60 μM, 15 min at 37° C.
Description: (§2) Hoechst 33342 dye (5 μg) was added to each tube and incubated for 45 min at 37° C. Tubes were vortexed slightly after every 5 min. Cells were resuspended in a single cell suspension after centrifugation and kept on ice before acquisition. The side-population was measured by flow cytometry.

[4] = tested on: TNF-α-induced NFκB activity in A549 luciferase cells; test: kB-luciferase assay; assay type: cell-based; settings: 20, 4, and 0.8 pM for 2 hours, then TNF-a
Description: A549 luciferase cells were seeded in white 96-well plates at a density of 50,000 cells per well and incubated overnight. Cells were stimulated with 20 ng/mL TNFα (Panomics) for 3 hours. AlamarBlue (abSerotec) was added (which served as a control for seeding and viability) and the cells were incubated for 3 additional hours. ONE-Glo Luciferase reagent (Promega) was added to each well and cells were incubated at room temperature for an additional 10 minutes before luminescence was measured at 1000 ms integration on a SpectraMax M5e plate reader.
The effect 36-252 and 36-297 on NFκB driven gene expression was evaluated using a cancer cell line specifically designed to monitor the activity of NFκB in response to TNF-α. Cells were seeded onto 96-well plates and allowed to attach overnight. The cells were treated with 36-252 and 36-297 (20, 4, and 0.8 pM) for 2 hours, followed by TNF-a for an additional 6 hours. Under multiplexing conditions the cells were assayed for viability using Alamar Blue (Ab Serotec) and the NFκB transcription activity using the ONE-Glo luciferase system (Promega).

A2780 SP cells = test: Side population analysis (Hoechst 33342, flow cytometry); settings: 60 μM, 15 min at 37° C.
Description: as §2

MiaPaCa2 cells = test: Cell viability assay (PrestoBlue, 72 hour drug incubation); assay type: cell-based; settings: Homo sapiens, MIA PaCa-2, 72 hour incubation, growth inhibition
Description: as §1

[5] = Dose limiting toxicities / MTD study; assay type: in vivo
Description: Six to eight-week-old C57 Albino mice (18-22 grams) were used in this study and were randomly assigned. For MTD studies, 3 mice were randomly assigned to six groups. Animals (Group 1-6) received a single dose of (0, 1, 5, 10, 20 and 100 mg/Kg in […] neat DMSO) of 36-252 via intraperitoneal injection. Mice were sacrificed after 48 hours, and blood and serum samples were subjected to hematology and clinical chemistry analyses. For group 7, a 6-day, 5 mg/kg/day study was carried out followed by submission of samples for hematology and clinical chemistry analyses.
In the phase I study, the lethal dose or maximum tolerated dose of 36-252 was evaluated. […] In the phase II study, three mice at 5 mg/kg/day were administered intraperitoneally for six days.

[6] = tested on: high grade serous carcinoma (HGSC) ovarian cancer cell lines; test: Growth inhibition in a panel of HGSC ovarian cancer cell lines; assay type: cell-based
Description: The IC50 value of all three inhibitors was greater than 20 μM in this cell line.

ovarian cancer cells = test: 3-day growth assay; assay type: cell-based
Excerpt: In the same assay, reduced compound 36-297.

[7] = mouse, in vivo, ip, 5 mg/kg/day
[8] = panel of HGSC ovarian cancer cell lines

Row | Compound | IC50 (A2780 cells) | IC50 (OVCAR5 cells) | IC50 (MiaPaCa2 cells) | other results
1 | C=C1CC2(NC1=O)C(=O)N(CCCCN1C(=O)C3(CC(=C)C(=O)N3)c3ccccc31)c1ccccc12 (centres unmarked) [Compound 40-038] | 0.4 ± 0.06 µM | 0.2 ± 0.04 µM |  | 
2 | C=C1CC2(OC1=O)C(=O)N(CCCCCCCN1C(=O)C3(CC(=C)C(=O)O3)c3ccccc31)c1ccccc12 (centres unmarked) [Compound 36-252] | 0.32 µM | 0.32 µM | 0.76 µM | caspase 3/7 activity [1]: Increased caspase 3/7 activity was seen in three of the five HGSC cell lines; crosslinking (high molecular weight bands) [2]: High molecular weight bands in the NFκB and IKBα blots were observed; bands in time course study ([2]; time course study): a band between 150 and 250 kDa in addition to the IKBα-NFκB bands; protein degradation / PARP cleavage ([2]; time course study): degradation of IKK α/β and PARP cleavage; IC50 [3]: > 20 µM; apparent therapeutic index ([3]; FT282 IC50 vs average HGSC IC50): greater than 25; SP cells eliminated, OVCAR5 (OVCAR5 SP cells): > 85%; inhibition of NFκB transcription activity [4]: Dose-dependent inhibition was observed; SP cells eliminated, A2780 (A2780 SP cells): > 98%; Treated/Alive ([5]; 1 mg/Kg, 1 dose, intraperitoneal, mice): (3/3); hematological analysis (WBC, RBC, hemoglobin) ([5]; mouse, in vivo): no significant differences in relative WBC, RBC, or hemoglobin numbers; overt toxicity ([5]; mouse, in vivo, 100 mg/kg): no sign of overt toxicity was observed; mean body weight [5, 7]: nor was any statistical difference in mean body weight observed; mortality and clinical levels [5, 7]: No mortality or abnormal clinical levels were observed; IC50 ([6]; average over HGSC cell lines): 0.78 µM; potency compared with 19 and 36-242 [6, 8]: more potent than analog 19 and a dimer with a 12-carbon linker 36-242; potency in HGSC panel [6, 8]: sub μM
3 | C=C1CC2(OC1=O)C(=O)N(CCCCCCCCCCCCN1C(=O)C3(CC(=C)C(=O)O3)c3ccccc31)c1ccccc12 (centres unmarked) [Compound 36-242] | 0.5 ± 0.06 µM | 0.47 ± 1.29 µM | 1.94 µM | potency relative to monomeric compound 19 (ovarian cancer cells): 10 fold; IC50 [3]: > 20 µM
4 | C=C1CC2(OC1=O)C(=O)N(CCCCCCCN1C(=O)C3(CC(=C)C(=O)O3)c3c(C)ccc(C)c31)c1c(C)ccc(C)c12 (centres unmarked) [Compound 36-280] | 0.35 ± 0.05 µM | 0.37 ± 0.04 µM |  | 
5 | C=C1CC2(NC1=O)C(=O)Nc1ccccc12 (centres unmarked) [Compound 25-4] | 0.99 ± 0.11 µM | 3.13 ± 0.55 µM | 6.08 µM | 
6 | CC1CC2(OC1=O)C(=O)N(CCCCCCCN1C(=O)C3(CC(C)C(=O)O3)c3ccccc31)c1ccccc12 (centres unmarked) [Compound 36-297] |  |  |  | IC50 (μM) A2780 (A2780 cells): Inactive; IC50 (μM) OVCAR5 (OVCAR5 cells; 72 hour incubation): Inactive
7 | C=C1CC2(OC1=O)C(=O)N(Cc1ccc(CN3C(=O)C4(CC(=C)C(=O)O4)c4ccccc43)cc1)c1ccccc12 (centres unmarked) [Compound 40-014] | 0.31 ± 0.02 µM | 0.18 ± 0.01 µM |  | 
8 | C=C1CC2(OC1=O)C(=O)Nc1ccccc12 (centres unmarked) [Compound 19] |  |  |  | crosslinking (high molecular weight bands) [2]: High molecular weight bands in the NFκB and IKBα blots were observed; IC50 [3]: > 20 µM

Now from value to compound, other results behind:

Row | IC50 (A2780 cells) | IC50 (OVCAR5 cells) | IC50 (MiaPaCa2 cells) | Compound | other results
9 | 0.23 ± 0.02 µM | 0.09 ± 0.01 µM |  | C=C1CC2(OC1=O)C(=O)N(CCCN1C(=O)C3(CC(=C)C(=O)O3)c3ccccc31)c1ccccc12 (centres unmarked) [Compound 36-286] | 
10 | 0.42 ± 0.04 µM | 0.32 ± 0.02 µM |  | C=C1CC2(OC1=O)C(=O)N(CCN1C(=O)C3(CC(=C)C(=O)O3)c3ccccc31)c1ccccc12 (centres unmarked) [Compound 40-059] | 
11 | 1.08 ± 0.01 µM | 0.48 ± 0.06 µM | 2.16 µM | C=C1CC2(OC1=O)C(=O)N(CCCCCCCCCN1C(=O)C3(CC(=C)C(=O)O3)c3ccccc31)c1ccccc12 (centres unmarked) [Compound 36-204] | 
12 | 0.29 ± 0.04 µM | 0.09 ± 0.01 µM | 0.91 µM | C=C1CC2(OC1=O)C(=O)N(CCCCCN1C(=O)C3(CC(=C)C(=O)O3)c3ccccc31)c1ccccc12 (centres unmarked) [Compound 36-202] | 
13 | 0.77 ± 0.14 µM | 0.83 ± 0.12 µM |  | C=C1CC2(OC1=O)C(=O)N(CCCCCCCCCCCN1C(=O)C3(CC(=C)C(=O)O3)c3ccccc31)c1ccccc12 (centres unmarked) [Compound 36-258] | 
14 | 0.6 ± 0.07 µM | 0.32 µM | 1.7 µM | C=C1CC2(OC1=O)C(=O)N(CCCCCCCCN1C(=O)C3(CC(=C)C(=O)O3)c3ccccc31)c1ccccc12 (centres unmarked) [Compound 36-254] | 
15 | 0.7 ± 0.09 µM | 0.3 ± 0.02 µM | 1.05 µM | C=C1CC2(OC1=O)C(=O)N(CCCCCCN1C(=O)C3(CC(=C)C(=O)O3)c3ccccc31)c1ccccc12 (centres unmarked) [Compound 36-239] | 
16 | 0.49 ± 0.06 µM | 0.41 ± 0.06 µM | 1.47 µM | C=C1CC2(OC1=O)C(=O)N(CCCCCCCCCCN1C(=O)C3(CC(=C)C(=O)O3)c3ccccc31)c1ccccc12 (centres unmarked) [Compound 36-256] | 
